# Earlier results in patent US20060275513A1, “Diet supplement for burning additional calories, providing sustained energy, supporting weight loss, and/or improving mental focus” (priority 2005, published 2006).
# Details: non-extended release format
smiles,measurement,value
Cn1c(=O)c2c(ncn2C)n(C)c1=O [Caffeine],accepted half-life,3.5 to 5 h
